{"source": "patent US20060160095A1", "about": "“Survivin” (EiRx Therapeutics Limited, priority 2002, published 2006)", "key": {"Neutrophils": {"test_system": "Neutrophils", "assay": "Neutrophil survival with BAL or GM-CSF after antisense/missense oligonucleotides (Example 7)", "assay_type": "cell-based, human", "conditions": "oligonucleotides 0 to 10 μM", "procedure": "Neutrophils are purified as normal and resuspended in culture medium (RPMI+10% FCS) to give a final conc. of 2×10^6/ml. Five hundred microlitres are added to each well of a 24 well plate, to give a final concentration of 1×10^6/well.\nEither antisense or missense oligonucleotides are added directly to each well over a range of concentrations between 0 μM to 10 μM.\nCells are then incubated for time intervals between 15 mins to 8 hours. Bronchoalveolar lavage (BAL) fluid, obtained from patients with chronic inflammation, including cystic fibrosis, chronic obstructive pulmonary disease or healthy controls, is then added to each well. As a positive control for increased survival, neutrophils are treated with GM-CSF (0 to 20 units).\nNeutrophil apoptosis is measured as described in Example 1."}, "HL60 cells": {"test_system": "HL60 cells", "assay": "DNA fragmentation by agarose gel electrophoresis in differentiated HL60 cells", "assay_type": "cell-based", "conditions": "10 μM Retinoic acid", "procedure": "HL60 cells are seeded at 5×10^6cells in T25 flasks and incubated with 10 μM Retinoic acid for 24, 48, 72, 96, 120 and 144 hrs. Mock treated HL-60 cells were used as a control. Cellular DNA was analysed for fragmentation into oligonucleosomal-size fragments and their multiples by agarose gel electrophoresis. Lanes 1,3,5,7,9,11 contain DNA from HL-60 cells that were differentiated with 10 μM Retinoic Acid over the indicated period whereas samples in lanes 2,4,6,8,10,12,14 are from control HL-60 cells treated for the same time period. Lane 15 is a 1 Kb Plus Ladder Molecular Marker."}, "[1]": {"test_system": "Primary human neutrophils", "assay": "MTT survival assay of neutrophils cultured with GM-CSF, with or without gliotoxin", "assay_type": "cell-based", "procedure": "Primary human neutrophils are isolated and purified from peripheral blood of normal healthy individuals. Neutrophils are resuspended in serum containing culture medium together with various amounts of GM-CSF at a density of 2×10^6/ml, with 100 μl plated into a 96 well plate and cultured for 18 h at 37° C. After this time 10 μl of MTT (5 mg/ml) is added to the cultures and incubated for a further 4 h at 37° C. before solubilisation of the purple coloured formazan with acidic isopropanol. Optical densities are read at 570 nm using a plate reader.\nPrimary human neutrophils are isolated and purified from peripheral blood of normal healthy individuals. Neutrophils are resuspended in serum containing culture medium containing 5 U/ml of GM-CSF at a concentration of 2×10^6/ml. […] After the indicated time, 10 μl of MTT (5 mg/ml) are added to the cultures and incubated for a further 4 h at 37° C. before solubilisation of the purple coloured formazan with acidic isopropanol. Optical densities are read at 570 nm using a plate reader."}, "Survivin mRNA": {"test_system": "Survivin mRNA", "assay": "LifeGrid microarray of Survivin transcripts in neutrophils", "assay_type": "cell-based, human", "conditions": "gliotoxin added in the presence of GM-CSF", "procedure": "Primary human neutrophils are isolated and purified from peripheral blood of normal healthy individuals using standard techniques. Neutrophils are resuspended in serum containing culture medium together with GM-CSF (50 U) at a concentration of 2×10^6/ml, and cultured for 0 h (control), 2 h, 4 h and 6 h at 37° C. Total RNA is then prepared from both groups using acid phenol/guanidine isothiocyanate extraction (RNAzol B; Biogenesis), or RNeasy RNA preparation kits (Qiagen). Any contaminating genomic DNA is removed by DNase treatment (DNase I, Gibco-BRL). […]\nThis example describes the use of a STORM Phosphoimager to quantitatively image positive signals across the filter arrays. […]\nThe captured image file is then analysed using software such as Array Vision (Imaging Research Inc.; See FIG. 5). […] This program contains facilities for spot detection and quantification, and background detection and quantification. […] As the data is imported to the database, a Normalisation factor is calculated and the sDENs values modified accordingly. […] A normalization factor may be derived from Linear Regression calculated by reference to housekeeping genes. Alternatively, the Global Mean is calculated as the average of the sDens values across all of the arrays to be compared and a normalisation factor is then derived by division of the overall spot density with the Global Mean value. […]"}}}
{"compound": "5′-CCCAgCCTTCCAgCTCCTTg-3′ (antisense 5'-CCCAgCCTTCCAgCTCCTTg-3'; as printed in the source, key not given here) [antisense Survivin oligonucleotides]", "values": [{"measurement": "survival of neutrophils treated with BAL", "setting": "Neutrophils; BAL derived from patients with chronic inflammation", "value": "inhibits the survival"}, {"measurement": "survival of neutrophils treated with control cytokine GM-CSF", "setting": "Neutrophils; GM-CSF as control cytokine", "value": "inhibits the survival"}]}
{"compound": "CC1=C(/C=C/C(C)=C/C=C/C(C)=C/C(=O)O)C(C)(C)CCC1", "note": "[retinoic acid, Retinoic acid]", "values": [{"measurement": "onset of apoptosis after differentiation", "setting": "HL60 cells", "value": "~4", "unit": "days"}]}
{"compound": "CN1C(=O)[C@]23CC4=CC=C[C@H](O)[C@H]4N2C(=O)[C@@]1(CO)SS3", "note": "[gliotoxin, Gliotoxin]", "values": [{"measurement": "block of the GM-CSF inhibition of neutrophil apoptosis (MTT)", "setting": "[1]; 0.1 μg/ml added with 5 U/ml GM-CSF", "value": "effectively blocks"}, {"measurement": "neutrophil apoptosis with the compound alone (MTT)", "setting": "[1]; added alone to isolated neutrophils, no GM-CSF", "value": "No increased neutrophil apoptosis"}, {"measurement": "Increased expression of Survivin following GM-CSF treatment", "setting": "Survivin mRNA", "value": "blocked"}]}
